In paper PMC4844309, “Identification of a Bioactive Compound against Adult T-cell Leukaemia from Bitter Gourd Seeds” (Plants, 2013):
Like-named read-outs stand apart in the source and are kept apart here.

Key:
[1] = test system: Su9T01 cells; test: ATL cell proliferation assay (WST-8), Su9T01 cells; type: cell-based, human; conditions: read-out: IC50 (inhibition of cell proliferation), Su9T01
Protocol: (§1) ED cells were kindly provided by Dr. M. Maeda (Kyoto University, Kyoto, Japan) and Su9T01 cells were kindly provided by Dr. N. Arima (Kagoshima University, Kagoshima, Japan). The test compounds were dissolved in dimethyl sulfoxide and subjected to assay screening. The method of ATL assay is described in a previous report. IC50 calculation was some curve fitted onto the determined proliferation inhibition points.

[2] = test system: ED cells; test: ATL cell proliferation assay (WST-8), ED cells; type: cell-based, human; conditions: read-out: IC50 (inhibition of cell proliferation), ED
Protocol: as §1

[3] = test system: phytohemagglutinin-activated human peripheral blood mononuclear cells (PBMC); test: cells; conditions: read-out: IC50 (inhibition of PBMC proliferation)
Protocol: as §1

[4] = test system: HL-60 cells; parameters: method as in PMID 22654956, PMID 18959405; conditions: human acute myelogenous leukemia cells; cited from earlier work
[5] = Homo sapiens, Su9T01 cells, 72 h incubation in RPMI-1640, WST-8 assay
[6] = Homo sapiens, ED cells, 72 h incubation in RPMI-1640, WST-8 assay
[7] = ED cells, 72 h incubation in RPMI-1640, WST-8 assay
[8] = Su9T01 cells, 72 h incubation in RPMI-1640, WST-8 assay

CCCCCCCCCCCCCCCCCC(=O)O [stearic acid, Stearic acid]
IC50 [1, 5]: > 500 µM

CCCCC/C=C\C/C=C\C/C=C\CCCCC(=O)O [γ-linolenic acid, γ-Linolenic acid]
IC50 [2, 6]: 61.3 µM
IC50 [1, 5]: 174 µM

CC/C=C\C/C=C\C/C=C\CCCCCCCC(=O)O [α-linolenic acid]
IC50 [2, 7]: 130 µM
IC50 [1, 8]: 167 µM

CCCCC/C=C\C/C=C\CCCCCCCC(=O)O [linoleic acid]
IC50 [2, 6]: 101 µM
IC50 [1, 5]: 180 µM

CCCCCCCC/C=C/CCCCCCCC(=O)O [elaidic acid]
IC50 ([2]; Homo sapiens, 72 h): > 500 µM
IC50 ([1]; Homo sapiens, 72 h): > 500 µM

CCCC/C=C/C=C/C=C\CCCCCCCC(=O)O [α-ESA, α-Eleostearic acid]
IC50 ([2]; Homo sapiens, 72 h): 8.9 µM
IC50 ([1]; Homo sapiens, 72 h): 29.3 µM
IC50 [3]: 31 µM
Anti-leukemic potential in HL-60 cells [4]: anti-leukemic potential

Epigallocatechin-3-gallate [EGCG]
IC50 [2, 7]: 153 µM
IC50 [1, 8]: 166 µM
